From patent US9440969B2, “Compounds and methods for kinase modulation, and indications therefor” (PLEXXIKON INC., priority 2009, dated 2016)

Columns and labels:
[1] = system: COLO205 colon adenocarcinoma (B-Raf V600E mutation); test: COLO205 cell growth inhibition (ATPlite luminescence); format: cell-based; settings: Homo sapiens, COLO 205, 72 h, COLO205 cells, incubated 3 days with compound
Procedure, shortened: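 Cells seeded at 6×10^4 cells/mL in line-specific medium with 10% FBS, held overnight at 37°C, then given an 8-point 1:3 compound titration (top 10 μM final) for 3 days at 37°C, 5% CO2. ATP content read by ATPlite luminescence as a cell-number proxy; IC50 fitted from luminescence versus concentration.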

CYP2D6 = CYP2D6 (Homo sapiens, UniProt P10635); test: CYP2D6 inhibition (fluorescent substrate AMMC); format: in vitro ADME; settings: read-out: Cyp IC50 (μM) 2D6
Chain of CYP2D6 (P10635 whole entry): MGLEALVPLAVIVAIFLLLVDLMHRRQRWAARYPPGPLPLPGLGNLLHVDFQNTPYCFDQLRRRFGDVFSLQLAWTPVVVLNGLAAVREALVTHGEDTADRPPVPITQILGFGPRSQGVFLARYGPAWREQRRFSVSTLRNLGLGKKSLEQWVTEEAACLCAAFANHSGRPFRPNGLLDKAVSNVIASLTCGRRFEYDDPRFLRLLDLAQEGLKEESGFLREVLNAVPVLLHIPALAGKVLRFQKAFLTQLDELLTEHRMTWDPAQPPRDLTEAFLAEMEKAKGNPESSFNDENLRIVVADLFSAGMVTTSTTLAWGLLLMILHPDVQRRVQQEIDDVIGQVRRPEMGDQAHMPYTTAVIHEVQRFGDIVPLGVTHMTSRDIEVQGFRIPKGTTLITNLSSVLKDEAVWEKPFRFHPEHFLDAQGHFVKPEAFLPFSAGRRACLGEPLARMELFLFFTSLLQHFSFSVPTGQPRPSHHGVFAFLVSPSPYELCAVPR
Procedure: (§1) CYP (Cytochrome P450) enzymes are the major drug metabolizing enzymes present in the liver. The inhibition of CYP enzyme activity (IC50) for each of CYP1A2, CYP2C19, CYP2C9, CYP2D6, CYP3A4(BFC) and CYP3A4(BQ) is determined for compounds, where inhibition of metabolism of a known substrate leads to a decrease in the fluorescence of the metabolized product. The fluorescence of the product is monitored as a function of compound concentration. Compounds are dissolved in dimethyl sulfoxide to a concentration of 100 mM. These are diluted […], into 82 μL of acetonitrile. An 11 μL aliquot of this solution is then added to 204 μL of cofactor mix (1.3% NADPH Regeneration system Solution A, 1.04% NADPH Regeneration system Solution B from BD Biosciences, 5% acetonitrile and 0.05% dimethyl sulfoxide). These are then serially diluted 1:1 (160 μL to 160 μL co-factor mix) for a total of 10 points. A 10 μL aliquot of this final mixture is dispensed into 384 well assay plates and incubated for 10 minutes at 37° C. Enzyme and substrate mix (10 μL; 0.5 pmol CYP1A2/5 μM CEC; 1.0 pmol CYP2C9/75 μM MFC; 0.5 pmol CYP2C19/25 μM CEC; 1.5 pmol CYP2D6/1.5 μM AMMC; 1.0 pmol CYP3A4/50 μM BFC; or 1.0 pmol CYP3A4/40 μM BQ) is added to these assay plates. Assay plates are incubated at 37° C. (CYP1A2-15 min; CYP2C9-45 min; CYP2C19, 2D6 and 3A4-30 min) and read in a Tecan Safire 2 plate reader (CYP1A2, 2C19 and 3A4 409 ex/460 em; CYP2C9 and 2D6 409 ex/530 em). The signal versus compound concentration is used to determine the IC50. The enzymes and substrates for this assay are obtained from BD Biosciences.

CYP3A4(BFC) = CYP3A4(BFC) (Homo sapiens, UniProt P08684); test: CYP3A4 inhibition (substrate BFC); format: in vitro ADME; settings: read-out: Cyp IC50 (μM) 3A4(BFC)
Chain of CYP3A4(BFC) (P08684 whole entry): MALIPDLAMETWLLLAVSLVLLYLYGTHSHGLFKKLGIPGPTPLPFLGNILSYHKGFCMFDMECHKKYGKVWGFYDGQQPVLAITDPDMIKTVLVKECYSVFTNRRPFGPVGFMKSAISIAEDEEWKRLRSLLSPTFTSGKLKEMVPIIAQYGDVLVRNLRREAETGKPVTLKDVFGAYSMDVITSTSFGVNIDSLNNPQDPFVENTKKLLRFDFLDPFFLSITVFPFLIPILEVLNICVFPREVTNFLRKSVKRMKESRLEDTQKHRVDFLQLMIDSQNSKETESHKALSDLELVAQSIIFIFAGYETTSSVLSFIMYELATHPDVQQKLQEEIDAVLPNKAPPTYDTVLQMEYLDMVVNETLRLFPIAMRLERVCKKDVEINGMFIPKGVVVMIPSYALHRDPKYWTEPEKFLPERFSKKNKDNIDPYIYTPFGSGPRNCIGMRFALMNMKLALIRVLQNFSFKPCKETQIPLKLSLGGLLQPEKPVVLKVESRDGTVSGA
Procedure: as §1

Compound | IC50 [1] [µM] | IC50 (CYP2D6) [µM] | IC50 (CYP3A4(BFC)) [µM]
CCCS(=O)(=O)Nc1ccc(F)c(C(=O)c2c[nH]c3ncc(-c4cnn(C5CCNCC5)c4)cc23)c1F [P-1002, Propane-1-sulfonic acid {2,4-difluoro-3-[5-(1-piperidin-4-yl-1H-pyrazol-4-yl)-1H-pyrrolo[2,3-b]pyridine-3-carbonyl]-phenyl}-amide] | < 1 | > 10 | > 10
CC(=O)N(c1ccc(F)c(C(=O)c2cn(C(C)=O)c3ncc(-c4ccc5c(cnn5C(C)=O)c4)cc23)c1F)S(=O)(=O)c1cc(F)ccc1F [P-0006, N-Acetyl-N-{3-[1-acetyl-5-(1-acetyl-1H-indazol-5-yl)-1H-pyrrolo[2,3-b]pyridine-3-carbonyl]-2,4-difluoro-phenyl}-2,5-difluoro-benzenesulfonamide] | < 1 | > 10 | > 10
O=C(c1c(F)ccc(NS(=O)(=O)c2ccc(C(F)(F)F)cc2)c1F)c1c[nH]c2ncc(-c3cnn(C4CCNCC4)c3)cc12 [P-1004, N-{2,4-Difluoro-3-[5-(1-piperidin-4-yl-1H-pyrazol-4-yl)-1H-pyrrolo[2,3-b]pyridine-3-carbonyl]-phenyl}-4-trifluoromethyl-benzenesulfonamide] | > 1 | > 10 | 5 to 10
Cc1ncc(-c2cnc3[nH]cc(C(=O)c4c(F)ccc(NS(=O)(=O)c5cc(F)ccc5F)c4F)c3c2)cn1 [P-1503, N-{2,4-Difluoro-3-[5-(2-methyl-pyrimidin-5-yl)-1H-pyrrolo[2,3-b]pyridine-3-carbonyl]-phenyl}-2,5-difluoro-benzenesulfonamide] | – | > 10 | > 10
CC(=O)n1ncc2cc(-c3cnc4[nH]cc(C(=O)c5c(F)ccc(NS(=O)(=O)c6cc(F)ccc6F)c5F)c4c3)ccc21 [P-0005, N-{3-[5-(1-Acetyl-1H-indazol-5-yl)-1H-pyrrolo[2,3-b]pyridine-3-carbonyl]-2,4-difluoro-phenyl}-2,5-difluoro-benzenesulfonamide] | < 1 | > 10 | > 10
CCCS(=O)(=O)Nc1ccc(F)c(C(=O)c2c[nH]c3ncc(-c4cccc5nn(C)cc45)cc23)c1F [P-0015, Propane-1-sulfonic acid {2,4-difluoro-3-[5-(2-methyl-2H-indazol-4-yl)-1H-pyrrolo[2,3-b]pyridine-3-carbonyl]-phenyl}-amide] | < 1 | > 10 | > 10
CCCS(=O)(=O)Nc1ccc(F)c(C(=O)c2c[nH]c3ncc(-c4ccc5c(cnn5S(C)(=O)=O)c4)cc23)c1F [P-0016, propane-1-sulfonic acid {2,4-difluoro-3-[5-(1-methanesulfonyl-1H-indazol-5-yl)-1H-pyrrolo[2,3-b]pyridine-3-carbonyl]-phenyl}-amide] | < 1 | > 10 | > 10
CCCS(=O)(=O)Nc1ccc(F)c(C(=O)c2c[nH]c3ncc(-c4ccc5ncsc5c4)cc23)c1F [P-0020, Propane-1-sulfonic acid [3-(5-benzothiazol-6-yl-1H-pyrrolo[2,3-b]pyridine-3-carbonyl)-2,4-difluoro-phenyl]-amide] | < 1 | > 10 | > 10
CCCS(=O)(=O)Nc1ccc(F)c(C(=O)c2c[nH]c3ncc(-c4ccc5cncnc5c4)cc23)c1F [P-0025, Propane-1-sulfonic acid [2,4-difluoro-3-(5-quinazolin-7-yl-1H-pyrrolo[2,3-b]pyridine-3-carbonyl)-phenyl]-amide] | < 1 | > 10 | > 10
CC(=O)n1cc(C(=O)c2c(F)ccc(NS(=O)(=O)c3cc(F)ccc3F)c2F)c2cc(-c3ccc4c(cnn4C(C)=O)c3)cnc21 [P-0004, N-{3-[1-Acetyl-5-(1-acetyl-1H-indazol-5-yl)-1H-pyrrolo[2,3-b]pyridine-3-carbonyl]-2,4-difluoro-phenyl}-2,5-difluoro-benzenesulfonamide] | < 1 | > 10 | > 10
O=C(c1c(F)ccc(NS(=O)(=O)c2cc(F)ccc2F)c1F)c1c[nH]c2ncc(-c3ccc4[nH]ncc4c3)cc12 [P-0002, N-{2,4-Difluoro-3-[5-(1H-indazol-5-yl)-1H-pyrrolo[2,3-b]pyridine-3-carbonyl]-phenyl}-2,5-difluoro-benzenesulfonamide] | < 1 | > 10 | –
CCCS(=O)(=O)Nc1ccc(F)c(C(=O)c2c[nH]c3ncc(-c4ccc5[nH]ncc5c4)cc23)c1F [P-0001, propane-1-sulfonic acid {2,4-difluoro-3-[5-(1H-indazol-5-yl)-1H-pyrrolo[2,3-b]pyridine-3-carbonyl]-phenyl}-amide] | < 1 | > 10 | > 10
Cc1ccc(-c2cnc3[nH]cc(C(=O)c4c(F)ccc(NS(=O)(=O)c5cc(F)ccc5F)c4F)c3c2)cn1 [P-1408, N-{2,4-Difluoro-3-[5-(6-methyl-pyridin-3-yl)-1H-pyrrolo[2,3-b]pyridine-3-carbonyl]-phenyl}-2,5-difluoro-benzenesulfonamide] | – | > 10 | > 10
CCCS(=O)(=O)Nc1ccc(F)c(C(=O)c2c[nH]c3ncc(-c4ccc5[nH]ccc5c4)cc23)c1F [P-0012, Propane-1-sulfonic acid {2,4-difluoro-3-[5-(1H-indol-5-yl)-1H-pyrrolo[2,3-b]pyridine-3-carbonyl]-phenyl}-amide] | < 1 | > 10 | 5 to 10
CCCS(=O)(=O)Nc1ccc(F)c(C(=O)c2c[nH]c3ncc(-c4csc(-n5ccnc5C)n4)cc23)c1F [P-1101, Propane-1-sulfonic acid (2,4-difluoro-3-{5-[2-(2-methyl-imidazol-1-yl)-thiazol-4-yl]-1H-pyrrolo[2,3-b]pyridine-3-carbonyl}-phenyl)-amide] | < 1 | > 10 | > 10
CCCS(=O)(=O)Nc1ccc(F)c(C(=O)c2c[nH]c3ncc(-c4ccc5[nH]cc(C)c5c4)cc23)c1F [P-0023, Propane-1-sulfonic acid {2,4-difluoro-3-[5-(3-methyl-1H-indol-5-yl)-1H-pyrrolo[2,3-b]pyridine-3-carbonyl]-phenyl}-amide] | < 1 | > 10 | > 10
CCCS(=O)(=O)Nc1ccc(F)c(C(=O)c2c[nH]c3ncc(-c4ccc5cn(C)nc5c4)cc23)c1F [P-0011, Propane-1-sulfonic acid {2,4-difluoro-3-[5-(2-methyl-2H-indazol-6-yl)-1H-pyrrolo[2,3-b]pyridine-3-carbonyl]-phenyl}-amide] | < 1 | > 10 | > 10
CNC(=O)n1ncc2cc(-c3cnc4[nH]cc(C(=O)c5c(F)ccc(NS(=O)(=O)c6cc(F)ccc6F)c5F)c4c3)ccc21 [P-0003, 5-{3-[3-(2,5-Difluoro-benzenesulfonylamino)-2,6-difluoro-benzoyl]-1H-pyrrolo[2,3-b]pyridin-5-yl}-indazole-1-carboxylic acid methylamide] | < 1 | > 10 | > 10
CCCS(=O)(=O)Nc1ccc(F)c(C(=O)c2c[nH]c3ncc(-c4ccc5c(cnn5C(C)=O)c4)cc23)c1F [P-0007, propane-1-sulfonic acid {3-[5-(1-acetyl-1H-indazol-5-yl)-1H-pyrrolo[2,3-b]pyridine-3-carbonyl]-2,4-difluoro-phenyl}-amide] | < 1 | > 10 | > 10
CCCS(=O)(=O)Nc1ccc(F)c(C(=O)c2c[nH]c3ncc(-c4ccc5nn(C)cc5c4)cc23)c1F [P-0010, Propane-1-sulfonic acid {2,4-difluoro-3-[5-(2-methyl-2H-indazol-5-yl)-1H-pyrrolo[2,3-b]pyridine-3-carbonyl]-phenyl}-amide] | < 1 | > 10 | > 10
